Laboratory results from the supplement of paper PMC12137928.
Where a name gives a salt, the structure may show the parent alone.

Tested on: HCT116
Conditions: 72 h
Outline: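 HCT116 cells went into 1536-well plates at 250 per well. CellTiter-Glo luminescence was expressed relative to vehicle (0%) and positive control (-100%) and then pattern-corrected. Both IC50 and maximal efficacy were taken from four-parameter Hill fits.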

IC50 cell viability (ICRF193 0 nM) [µM] | IC50 cell viability (ICRF193 200 nM) [µM] | Structure (SMILES)
> 45.8 | > 45.8 | C[C@@H]1C/C=C/C=C/C=C/C=C/[C@H](O[C@@H]2O[C@H](C)[C@@H](O)[C@H](N)[C@@H]2O)C[C@@H]2O[C@](O)(C[C@@H](O)C[C@H]3O[C@@H]3/C=C/C(=O)O1)C[C@H](O)[C@H]2C(=O)O [Pimaricin]
> 45.8 | > 45.8 | CC(C(=O)O)c1ccc(/C=C2\CCCCC2=O)cc1 (configuration not stated) [Pelubiprofen]
> 45.8 | > 45.8 | OCCCNc1ccccc1 [3-Anilinopropan-1-ol]
> 45.8 | > 45.8 | CC(C)C(=O)Nc1ccc([N+](=O)[O-])c(C(F)(F)F)c1 [Flutamide]
> 45.8 | > 45.8 | O=c1[nH]c(=O)c2[nH]c(O)nc2[nH]1 [Sodium urate]
> 45.8 | > 45.8 | CCCC(=O)O[C@]1(C(=O)CC)CC[C@H]2[C@@H]3CCC4=CC(=O)CC[C@]4(C)[C@H]3[C@@H](O)C[C@@]21C [Resocortol butyrate]
> 45.8 | > 45.8 | COc1cc(NS(=O)(=O)c2ccc(N)cc2)ncn1 [Sulfamonomethoxine]
> 45.8 | > 45.8 | CS(=O)(=O)OCCCNCCCOS(C)(=O)=O [Improsulfan tosylate]
> 45.8 | > 45.8 | CCCCCCCCCCCCCCCC(=O)OCC(=O)[C@@]1(O)[C@H](C)C[C@H]2[C@@H]3CCC4=CC(=O)C=C[C@]4(C)[C@@]3(F)[C@@H](O)C[C@@]21C [Dexamethasone 21-Palmitate]
> 45.8 | > 45.8 | O=C(O)CNC(=O)c1ccccc1 [Hippuric acid]
> 45.8 | > 45.8 | Cc1c[nH]c2ccccc12 [3-Methylindole]
> 45.8 | > 45.8 | CCOC(=O)/C=C(C)/C=C/C=C(C)/C=C/c1c(C)cc(OC)c(C)c1C [Etretinate]
> 45.8 | > 45.8 | CCn1ccc(NS(=O)(=O)c2ccc(N)cc2)nc1=O [Sulfacytine]
> 45.8 | > 45.8 | CCCCN(CCCC)CCCOC(=O)c1ccc(N)cc1 [Butacaine]
> 45.8 | > 45.8 | COc1ccc2cc(CCC(C)=O)ccc2c1 [Nabumetone]
> 45.8 | > 45.8 | OC(CN1CCCCC1)c1cc(-c2ccccc2)on1 (configuration not stated) [Perisoxal citrate]
> 45.8 | > 45.8 | CCCc1ncc(C[n+]2ccccc2C)c(N)n1 [Amprolium hydrochloride]
> 45.8 | > 45.8 | CCOCCn1c(C2CCN(CCc3ccc(C(C)(C)C(=O)O)cc3)CC2)nc2ccccc21 [Bilastine]
> 45.8 | > 45.8 | CCCCc1ncc(/C=C(\Cc2cccs2)C(=O)O)n1Cc1ccc(C(=O)O)cc1 [Eprosartan mesylate]

IC50 cell viability (ICRF193 0 nM) [µM] | IC50 cell viability (ICRF193 200 nM) [µM] | Structure (SMILES)
> 45.8 | > 45.8 | C[C@]1(COc2ccc(N3CCC(Oc4ccc(OC(F)(F)F)cc4)CC3)cc2)Cn2cc([N+](=O)[O-])nc2O1 [Delamanid]
> 45.8 | > 45.8 | CCCN(CCC)C(=O)C(CCC(=O)O)NC(=O)c1ccccc1 (configuration not stated) [Proglumide]
> 45.8 | > 45.8 | CC(C)(CO)[C@@H](O)C(=O)NCCC(=O)O [Pantothenic acid]
> 45.8 | > 45.8 | OCc1ccc(Cl)cc1Cl [2,4-Dichlorobenzyl alcohol]
> 45.8 | > 45.8 | COc1cc(C(=O)NC2CCCNC2)cc(OC)c1OC (configuration not stated) [Troxipide]
> 45.8 | > 45.8 | O=NN(CCCl)C(=O)NC1CCCCC1 [Lomustine]
> 45.8 | > 45.8 | CC(C)(C)NC(=O)[C@H]1CC[C@H]2[C@@H]3CC=C4C=C(C(=O)O)CC[C@]4(C)[C@H]3CC[C@]12C [Epristeride]
> 45.8 | > 45.8 | CCC(Oc1ccccc1)C(=O)N[C@@H]1C(=O)N2[C@@H]1SC(C)(C)[C@@H]2C(=O)O (some centres not stated) [Propicillin]
> 45.8 | > 45.8 | CCOC(=O)n1ccn(C)c1=S [Carbimazole]
> 45.8 | > 45.8 | Oc1ccc(Cl)c2cccnc12 [Cloxyquin]
> 45.8 | > 45.8 | COC(=O)C1=C(C)NC(C)=C(C(=O)OCCc2ccc(N3CCN(C(c4ccccc4)c4ccccc4)CC3)cc2)C1c1cccc([N+](=O)[O-])c1 (configuration not stated) [Watanidipine]
> 45.8 | > 45.8 | NC[C@@H]1CC[C@@H](N)[C@@H](O[C@H]2[C@H](O)[C@@H](O[C@H]3O[C@H](CO)[C@@H](O)[C@H](N)[C@H]3O)[C@H](N)C[C@@H]2N)O1 [DIBEKACIN]
> 45.8 | > 45.8 | CC(C1=C(CCN(C)C)Cc2ccccc21)c1ccccn1 (stereo in doubt) [(S)-(+)-Dimethindene maleate]
> 45.8 | > 45.8 | Nc1c(CC(=O)O)cccc1C(=O)c1ccc(Br)cc1 [Bromfenac sodium sesquihydrate]
> 45.8 | > 45.8 | C=Cc1ccccc1 [Styrene]
> 45.8 | > 45.8 | CC(=O)Oc1cccc(C)c1 [m-Cresyl acetate]
> 45.8 | > 45.8 | O=C(CCBr)N1CCN(C(=O)CCBr)CC1 [Pipobroman]
> 45.8 | > 45.8 | OC(CCCN1CCCCC1)(c1ccccc1)c1ccccc1 [Diphenidol]

Structure (SMILES) | IC50 cell viability (ICRF193 0 nM) [µM] | IC50 cell viability (ICRF193 200 nM) [µM]
O=C1C[C@@H]2OCC=C3CN4CC[C@]56c7ccccc7N1[C@H]5[C@H]2[C@H]3C[C@H]46 [Strychnine] | > 45.8 | > 45.8
O=P1(N(CCCl)CCCl)NCCCO1 (configuration not stated) [Cyclophosphamide] | > 45.8 | > 45.8
CN1C(=O)NC(=O)C(C)(C2=CCCCC2)C1=O (configuration not stated) [Hexobarbital] | > 45.8 | > 45.8
CN1CCC2=C(C1)C(c1ccccc1)c1ccccc12 (configuration not stated) [PHENINDAMINE] | > 45.8 | > 45.8
CCOC(=O)C1(c2ccccc2)CCCN(C)CC1 (configuration not stated) [Ethoheptazine hydrochloride] | > 45.8 | > 45.8
CC(C)c1cccc(C(C)C)c1O [Propofol] | > 45.8 | > 45.8
CN[C@@H]1[C@@H](O)[C@@H](O[C@@H]2[C@@H](O)[C@H](O[C@H]3O[C@H](CN)CC[C@H]3N)[C@@H](N)C[C@H]2N)OC[C@]1(C)O.CN[C@@H]1[C@@H](O)[C@@H](O[C@@H]2[C@@H](O)[C@H](O[C@H]3O[C@H]([C@@H](C)N)CC[C@H]3N)[C@@H](N)C[C@H]2N)OC[C@]1(C)O.CN[C@@H]1[C@@H](O)[C@@H](O[C@@H]2[C@@H](O)[C@H](O[C@H]3O[C@H]([C@@H](C)NC)CC[C@H]3N)[C@@H](N)C[C@H]2N)OC[C@]1(C)O [GENTAMICIN SULFATE] | > 45.8 | > 45.8
NCC(O)c1cccc(O)c1 (configuration not stated) [Norphenylephrine hydrochloride] | > 45.8 | > 45.8
C=C(C)[C@H]1CN[C@H](C(=O)O)[C@H]1CC(=O)O [Kainic acid] | > 45.8 | > 45.8
